Data: ChEMBL document CHEMBL3779790, “Novel Imbricatolic acid derivatives as protein tyrosine phosphatase-1B inhibitors: Design, synthesis, biological evaluation and molecular docking” (Bioorg Med Chem Lett, 2016)

How the values were obtained:
[1] = molecular target: T1, Tyrosine-protein phosphatase non-receptor type 1 (Homo sapiens) (UniProt P18031); assay: Inhibition of human recombinant PTP-1B using IR5 insulin receptor residues as substrate at 10 uM after 30 mins by malachite green assay
T1 sequence (whole entry): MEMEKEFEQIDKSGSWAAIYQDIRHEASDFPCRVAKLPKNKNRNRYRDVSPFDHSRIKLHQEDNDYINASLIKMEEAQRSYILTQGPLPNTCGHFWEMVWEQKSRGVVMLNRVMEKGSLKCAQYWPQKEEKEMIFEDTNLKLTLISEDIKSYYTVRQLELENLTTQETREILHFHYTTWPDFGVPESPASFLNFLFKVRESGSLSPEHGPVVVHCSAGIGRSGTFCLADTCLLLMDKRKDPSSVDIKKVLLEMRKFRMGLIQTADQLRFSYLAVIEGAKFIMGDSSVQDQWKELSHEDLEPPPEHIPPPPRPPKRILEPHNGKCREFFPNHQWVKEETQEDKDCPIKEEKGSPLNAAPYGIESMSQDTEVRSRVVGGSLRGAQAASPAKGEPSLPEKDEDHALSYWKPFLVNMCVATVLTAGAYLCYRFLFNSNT

[2] = molecular target: T1, Tyrosine-protein phosphatase non-receptor type 1 (Homo sapiens); assay: Inhibition of human recombinant PTP-1B using IR5 insulin receptor residues as substrate at 1 uM after 30 mins by malachite green assay
[3] = molecular target: T2, Tyrosine-protein phosphatase non-receptor type 1 (Homo sapiens, UniProt P18031); assay: Inhibition of human recombinant PTP-1B using IR5 insulin receptor residues as substrate after 30 mins by malachite green assay
T2 sequence (P18031 whole entry): T1 sequence (whole entry)

[4] = molecular target: T1, Tyrosine-protein phosphatase non-receptor type 1 (Homo sapiens); assay: Inhibition of human recombinant PTP-1B using IR5 insulin receptor residues as substrate at 100 uM after 30 mins by malachite green assay
[5] = molecular target: T1, Tyrosine-protein phosphatase non-receptor type 1 (Homo sapiens); assay: Inhibition of human recombinant PTP-1B using IR5 insulin receptor residues as substrate at 5 uM after 30 mins by malachite green assay
[6] = molecular target: T1, Tyrosine-protein phosphatase non-receptor type 1 (Homo sapiens); assay: Inhibition of human recombinant PTP-1B using IR5 insulin receptor residues as substrate at 30 uM after 30 mins by malachite green assay

SMILES | inhibition [1] [%] | inhibition [2] [%] | IC50 [3] [µM] | inhibition [4] [%] | inhibition [5] [%] | inhibition [6] [%]
C=C1CC[C@@H]2[C@](C)(CCC[C@]2(C)N=C=O)[C@H]1CC[C@H](C)CN=C=O | 45.7 | – | – | – | – | –
C=C1CC[C@@H]2[C@](C)(CCC[C@]2(C)NC(N)=O)[C@H]1CC[C@H](C)CCO | 61.5 | 8.2 | 6.3 | 87.2 | 25.9 | 79.2
Cc1ccc(C(=O)Nc2ccc(S(=O)(=O)O)c3cc(S(=O)(=O)O)cc(S(=O)(=O)O)c23)cc1NC(=O)c1cccc(NC(=O)Nc2cccc(C(=O)Nc3cc(C(=O)Nc4ccc(S(=O)(=O)O)c5cc(S(=O)(=O)O)cc(S(=O)(=O)O)c45)ccc3C)c2)c1 | 64.3 | – | – | – | – | –
C=C1CC[C@@H]2[C@](C)(CCC[C@]2(C)N=C=O)[C@H]1CC[C@H](C)CCO | 41.3 | – | – | – | – | –
C=C1CC[C@@H]2[C@](C)(CCC[C@]2(C)NC(N)=O)[C@H]1CC[C@H](C)C/C=N/OC(C)=O | 65.3 | 11.2 | 7 | 82.2 | 31.7 | 79.1
C=C1CC[C@@H]2[C@](C)(CCC[C@]2(C)N=C=O)[C@H]1CC[C@H](C)C/C=N/OC(C)=O | 44.8 | – | – | – | – | –
C=C1CC[C@H]2[C@@](C)(COC(C)=O)CCC[C@]2(C)[C@H]1CC[C@H](C)CCOC(C)=O | 34.2 | – | – | – | – | –
C=C1CC[C@@H]2[C@](C)(CCC[C@]2(C)NC(N)=O)[C@H]1CC[C@H](C)CNC(N)=O | 65.8 | 9.3 | 6.8 | 79.2 | 37.3 | 67.2
C=C1CC[C@@H]2[C@](C)(CCC[C@]2(C)C(=O)OCC)[C@H]1CC[C@H](C)CCO | 23.1 | – | – | – | – | –

Second part, the molecule after the results:

inhibition [1] [%] | inhibition [2] [%] | IC50 [3] [µM] | inhibition [4] [%] | inhibition [5] [%] | inhibition [6] [%] | SMILES
29.5 | – | – | – | – | – | C=C1CC[C@H]2[C@@](C)(CO)CCC[C@]2(C)[C@H]1CC[C@H](C)CCO
35.6 | – | – | – | – | – | C=C1CC[C@@H]2[C@](C)(CCC[C@]2(C)C(=O)O)[C@H]1CC[C@H](C)CC(=O)O
43.5 | – | – | – | – | – | C=C1CC[C@@H]2[C@](C)(CCC[C@]2(C)C(=O)O)[C@H]1CC[C@H](C)C/C=N/OC(C)=O
19.9 | – | – | – | – | – | C=C1CC[C@@H]2[C@](C)(CCC[C@]2(C)C(=O)O)[C@H]1CC[C@H](C)CC=O
40.1 | – | – | – | – | – | C=C1CC[C@@H]2[C@](C)(CCC[C@]2(C)C(=O)O)[C@H]1CC[C@H](C)C/C=N/O
59.2 | 5.9 | 8.8 | 71.1 | 19.2 | 67.2 | C=C1CC[C@@H]2[C@](C)(CCC[C@]2(C)C(=O)O)[C@H]1CC[C@H](C)CCO [IMBRICATOLIC ACID]
59.9 | 7.1 | 7.8 | 69.2 | 38.2 | 63.2 | C=C1CC[C@@H]2[C@](C)(CCC[C@]2(C)NC(N)=O)[C@H]1CC[C@H](C)C/C=N/O
